Article PMC7560342, “In Vitro and In Vivo Evaluation of the Toxic Effects of Dodecylguanidine Hydrochloride” (Toxics, 2020)
“Also recorded” adds a separate entry of the source.

How the values were obtained:
A549 cells = assay: Colony formation (clonogenic) assay; assay type: cell-based, Human; details: 10 days
Experimental: A clonogenic assay was performed by modifying the method of Franken et al.. Briefly, the cells were incubated overnight in six-well plates, at a density of 200 cells per well. DGH (0.00313, 0.00625, 0.0125, 0.025, 0.05, 0.1, and 0.2 μg/mL) and CGP (0.313, 0.625, 1.25, 2.5, 5, 10, and 20 μg/mL) were incubated with the cells for ten days. After incubation, the medium was removed, the cells were washed with phosphate-buffered saline (PBS), fixed with methanol for 10 min on ice, and stained with crystal violet (0.5% crystal violet in 20% methanol). The number of colonies was quantified using light microscopy (Olympus Co., Tokyo, Japan).

Sprague-Dawley rats = assay: Bronchoalveolar lavage fluid (BALF) analysis after acute inhalation; assay type: in vivo, rat
Experimental: The inhalation aerosols of the DGH solutions were generated using an atomizer with a clean air flow of 250 L/min. […] In the acute toxicity test, all the rats in each group were sacrificed immediately after exposure. Temperature, humidity, air flow, and air pressure were monitored during the exposure using a Model VT3-X15 environmental controller (Sibata, Saitama, Japan). The concentration of DGH was analyzed by sampling the chamber air using a SIP-32L (Sibata, Saitama, Japan) and measuring the weight of the membranes (T60A20, Φ55). The mass median aerodynamic diameter (MMAD) and geometric standard deviation (GSD) of DGH in the exposure chamber were measured using an Andersen cascade impactor (AN-200, Sibata, Saitama, Japan).
BALF was obtained from the right lung by lavage (twice) with 3 mL phosphate buffered saline (PBS, pH 7.4, magnesium, and calcium free). The BALF samples were centrifuged (1500 rpm, 4 °C, 10 min) and the cell-free supernatant of the first lavage was used for the determination of LDH, total protein, and inflammatory cytokine levels. LDH activity was measured using the EZ-LDH kit (DoGenBio, Seoul, Korea). Total protein content was quantified using a BCA protein assay kit (iNtRON Biotechnology, Seoul, Korea). To evaluate the inflammatory cytokine levels in BALF, tumor necrosis factor-alpha (TNF-α), interleukin-6 (IL-6), interleukin-1 beta (IL-1β), […], and transforming growth factor-beta 1 (TGF-β1) were determined using a Quantikine® enzyme-linked immunosorbent assay kit (R&D Systems, Minneapolis, MN, USA), according to the manufacturer’s instructions. Cells in all lavages were resuspended in PBS, and the total cell count in BALF was quantified using a Vi-Cell® XR analyzer (Beckman Coulter, Brea, CA, USA). Differential cell counts were performed on cytospin preparations (Shadon, Pittsburgh, PA, USA), and the cells were stained with Diff-Quick (Fisher Scientific, Swedesboro, NJ, USA). Polymorphonuclear leukocytes (PMNs) in the BALF were counted using light microscopy (Olympus, Tokyo, Japan).

Sprague-Dawley (SD) rats = assay: Histopathology of nasal cavity and lung after acute inhalation; assay type: in vivo, rat; details: High 68 mg/m^3, 4 h; for Lung: Cell infiltration, terminal bronchiole/alveolar duct, neutrophils/macrophages / Lung: Intraluminal cell debris, terminal bronchiole/alveolar duct / Lung: No specific lesion / Nasal cavity Level 1: Acute inflammation with necrosis, focal / Nasal cavity Level 1: Cell infiltration, lymphocytes, focal / Nasal cavity Level 1: No specific lesion / Nasal cavity Level 2: Acute inflammation with necrosis, focal / Nasal cavity Level 2: Cell infiltration, lymphocytes, focal / Nasal cavity Level 2: No specific lesion / Nasal cavity Level 3: Cell infiltration, lymphocytes, focal / Nasal cavity Level 3: No specific lesion / Nasal cavity Level 4: Cell infiltration, lymphocytes, focal / Nasal cavity Level 4: No specific lesion: cases (percentage) of 5 examined; for Lung: Cell infiltration, terminal bronchiole/alveolar duct, neutrophils/macrophages; Grade: minimal / Lung: Intraluminal cell debris, terminal bronchiole/alveolar duct; Grades: minimal / Nasal cavity Level 1: Acute inflammation with necrosis, focal; Grade: mild / Nasal cavity Level 1: Acute inflammation with necrosis, focal; Grade: minimal / Nasal cavity Level 1: Cell infiltration, lymphocytes, focal; Grade: minimal / Nasal cavity Level 2: Acute inflammation with necrosis, focal; Grade: mild / Nasal cavity Level 2: Acute inflammation with necrosis, focal; Grade: minimal / Nasal cavity Level 2: Cell infiltration, lymphocytes, focal; Grade: minimal / Nasal cavity Level 3: Cell infiltration, lymphocytes, focal; Grade: minimal / Nasal cavity Level 4: Cell infiltration, lymphocytes, focal; Grade: minimal: number of cases
Experimental: The inhalation aerosols of the DGH solutions were generated using an atomizer with a clean air flow of 250 L/min. For the acute inhalation exposure study, the rats were exposed to 7.8 mg/m^3, 23 mg/m^3, and 70 mg/m^3 DGH for 4 h in the low, middle, and high exposure groups, respectively, and the control rats were exposed to clean air. In the acute toxicity test, all the rats in each group were sacrificed immediately after exposure. Temperature, humidity, air flow, and air pressure were monitored during the exposure using a Model VT3-X15 environmental controller (Sibata, Saitama, Japan). The concentration of DGH was analyzed by sampling the chamber air using a SIP-32L (Sibata, Saitama, Japan) and measuring the weight of the membranes (T60A20, Φ55). The mass median aerodynamic diameter (MMAD) and geometric standard deviation (GSD) of DGH in the exposure chamber were measured using an Andersen cascade impactor (AN-200, Sibata, Saitama, Japan).
After the inhalation of DGH for 4 h, the animals were euthanized. After gross examination, the left lung and nasal cavity of the rats in the control and high-exposure groups were fixed in 10% neutral buffered formalin. The nasal cavity was decalcified with a decalcification solution and then cross-sectioned into four levels as follows: level 1 (posterior part of the upper incisors), level 2 (incisive papilla), level 3 (second palatine crest), level 4 (first upper molar teeth). Following routine tissue processing, the tissues were embedded in paraffin and sectioned into 3 μm thick sections. The tissue sections were stained with hematoxylin and eosin (H&E), and then examined under a light microscope (Olympus BX41, Tokyo, Japan). The lesions were graded according to severity by pathologists.

[1] = male rats, exposure groups, 4 h
[2] = rats, 8.6–68 mg/m^3, 4 h, vs control

## CCCCCCCCCCCCN=C(N)N.Cl [DGH, Dodecylguanidine hydrochloride]
A549 cells; DGH 0.00313–0.2 μg/mL, CGP 0.313–20 μg/mL
  Total number of colonies: dramatic decrease
A549 cells; DGH 0.025 μg/mL
  Reduction in colony formation compared to the control: approximately 50%
Sprague-Dawley rats; [1]
  IL-6 level in BALF compared to control groups: about seven times
  MIP-2 level in BALF compared to control groups: about five times
Sprague-Dawley rats; male rats, high 68 mg/m^3, 4 h
  Increase of ratio of PMNs in BALF: > 204 fold
Sprague-Dawley rats; male rats, middle 21.3 mg/m^3, 4 h
  Increase of ratio of PMNs in BALF: more than 38.7 fold
Sprague-Dawley rats; rats, 8.6–68 mg/m^3, 4 h
  Cytokines (MIP-2, TGF-β1, IL-1β, TNF-α, IL-6) in BALF: increased in a concentration-dependent manner
Sprague-Dawley rats; [2]
  LDH in BALF: increased in a concentration-dependent manner; also recorded: significantly increased in all the exposed groups
  PMNs in BALF: increased in a concentration-dependent manner; also recorded: significant increase
  Total protein in BALF: significantly increased in all the exposed groups
Sprague-Dawley (SD) rats; female
  Lung: Cell infiltration, terminal bronchiole/alveolar duct, neutrophils/macrophages: 3(60.0)
  Lung: Intraluminal cell debris, terminal bronchiole/alveolar duct: 1(20.0)
  Lung: No specific lesion: 1(20.0)
  Nasal cavity Level 1: Acute inflammation with necrosis, focal: 1(20.0)
  Nasal cavity Level 1: Cell infiltration, lymphocytes, focal: 0(0.00)
  Nasal cavity Level 1: No specific lesion: 4(80.0)
  Nasal cavity Level 2: Acute inflammation with necrosis, focal: 0(0.00)
  Nasal cavity Level 2: Cell infiltration, lymphocytes, focal: 0(0.00)
  Nasal cavity Level 2: No specific lesion: 5(100)
  Nasal cavity Level 3: Cell infiltration, lymphocytes, focal: 1(20.0)
  Nasal cavity Level 3: No specific lesion: 4(80.0)
  Nasal cavity Level 4: Cell infiltration, lymphocytes, focal: 2(40.0)
  Nasal cavity Level 4: No specific lesion: 3(60.0)
  Lung: Cell infiltration, terminal bronchiole/alveolar duct, neutrophils/macrophages; Grade: minimal: 3
  Lung: Intraluminal cell debris, terminal bronchiole/alveolar duct; Grades: minimal: 1
  Nasal cavity Level 1: Acute inflammation with necrosis, focal; Grade: mild: 0
  Nasal cavity Level 1: Acute inflammation with necrosis, focal; Grade: minimal: 1
  Nasal cavity Level 1: Cell infiltration, lymphocytes, focal; Grade: minimal: 0
  Nasal cavity Level 2: Acute inflammation with necrosis, focal; Grade: mild: 0
  Nasal cavity Level 2: Acute inflammation with necrosis, focal; Grade: minimal: 0
  Nasal cavity Level 2: Cell infiltration, lymphocytes, focal; Grade: minimal: 0
  Nasal cavity Level 3: Cell infiltration, lymphocytes, focal; Grade: minimal: 1
  Nasal cavity Level 4: Cell infiltration, lymphocytes, focal; Grade: minimal: 2
Sprague-Dawley (SD) rats; male
  Lung: Cell infiltration, terminal bronchiole/alveolar duct, neutrophils/macrophages: 5(100)
  Lung: Intraluminal cell debris, terminal bronchiole/alveolar duct: 1(20.0)
  Lung: No specific lesion: 0(0.00)
  Nasal cavity Level 1: Acute inflammation with necrosis, focal: 1(20.0)
  Nasal cavity Level 1: Cell infiltration, lymphocytes, focal: 0(0.00)
  Nasal cavity Level 1: No specific lesion: 4(80.0)
  Nasal cavity Level 2: Acute inflammation with necrosis, focal: 1(20.0)
  Nasal cavity Level 2: Cell infiltration, lymphocytes, focal: 0(0.00)
  Nasal cavity Level 2: No specific lesion: 4(80.0)
  Nasal cavity Level 3: Cell infiltration, lymphocytes, focal: 2(40.0)
  Nasal cavity Level 3: No specific lesion: 3(60.0)
  Nasal cavity Level 4: Cell infiltration, lymphocytes, focal: 0(0.00)
  Nasal cavity Level 4: No specific lesion: 5(100)
  Lung: Cell infiltration, terminal bronchiole/alveolar duct, neutrophils/macrophages; Grade: minimal: 5
  Lung: Intraluminal cell debris, terminal bronchiole/alveolar duct; Grades: minimal: 1
  Nasal cavity Level 1: Acute inflammation with necrosis, focal; Grade: mild: 1
  Nasal cavity Level 1: Acute inflammation with necrosis, focal; Grade: minimal: 0
  Nasal cavity Level 1: Cell infiltration, lymphocytes, focal; Grade: minimal: 0
  Nasal cavity Level 2: Acute inflammation with necrosis, focal; Grade: mild: 1
  Nasal cavity Level 2: Acute inflammation with necrosis, focal; Grade: minimal: 0
  Nasal cavity Level 2: Cell infiltration, lymphocytes, focal; Grade: minimal: 0
  Nasal cavity Level 3: Cell infiltration, lymphocytes, focal; Grade: minimal: 2
  Nasal cavity Level 4: Cell infiltration, lymphocytes, focal; Grade: minimal: 0
